Laboratory results published in ChEMBL document CHEMBL4665890, “N-Trifluoromethyl Amines and Azoles: An Underexplored Functional Group in the Medicinal Chemist's Toolbox” (J Med Chem, 2020).

Assays:
[1] = Stability in neat DMSO at 10 mM at room temperature under air without protection from sunlight measured after 1 month by LC-MS analysis; type: physicochemical; conditions: 730 h, 10000 µM, time 1 months
[2] = Stability in neat […] DMSO/H2O 1:4 mixture assessed as compound hydrolysis at 10 mM at room temperature under air without protection from sunlight measured after 0.5 hrs by LC-MS analysis; type: physicochemical; conditions: 10000 µM
physchem [3] = conditions: 0.1 M HCl solution, pH 1
Description: Half life in 0.1 M HCl solution at pH 1.0 at 25 degC by UPLC analysis

physchem [4] = conditions: 20 mM sodium carbonate buffer, pH 10
Description: Half life in 20 mM sodium carbonate buffer at pH 10 at 25 degC by UPLC analysis

physchem [5] = assay: physchem
Description: Dissociation constant, pKa1 of compound by spectrophotometry

physchem [6] = conditions: buffer, pH 7.4
in vitro [7] = conditions: human, Caco-2
Description: Passive permeability from apical to basolateral side in human Caco-2 cells

in vitro [8] = conditions: human, liver microsomes
Description: Metabolic stability in human liver microsomes

physchem [9] = conditions: buffer, pH 7.4; remark: listed apart in the source
physchem [10] = conditions: 20 mM sodium phosphate buffer, pH 7.4
Description: Half life in 20 mM sodium phosphate buffer at pH 7.4 at 25 degC by UPLC analysis

[11] = Stability in neat […] DMSO/H2O 1:4 mixture assessed as compound hydrolysis at 10 mM at room temperature under air without protection from sunlight measured after 1 month by LC-MS analysis; type: physicochemical; conditions: 730 h, 10000 µM, time 1 months
[12] = Stability in neat […] DMSO/H2O 1:4 mixture assessed as compound hydrolysis at 10 mM at room temperature under air without protection from sunlight measured after 1 month by NMR analysis; type: physicochemical; conditions: 730 h, 10000 µM, time 1 months
physchem [13] = assay: physchem; remark: listed apart in the source
Description: Dissociation constant, pKa2 of compound by spectrophotometry

[14] = Stability in presence of glutathione by LC-MS analysis; type: physicochemical; conditions: solution with glutathione
[15] = Stability in absence of glutathione by LC-MS analysis; type: physicochemical; conditions: gsh
[16] = Stability in neat […] DMSO/H2O 1:4 mixture assessed as compound hydrolysis at 10 mM at room temperature under air without protection from sunlight measured after 24 hrs by LC-MS analysis; type: physicochemical; conditions: read-out: Drug degradation

Structure (SMILES) | Stabilty [1] | logD (physchem [6]) | Papp A→B (in vitro [7]) [nm/s] | microsomal CLint (in vitro [8]) [µL/min/mg] | chromatographic logD (physchem [9]) | further results
FC(F)(F)N1CCN(c2ccccc2)CC1 | Stable | – | – | – | – | Stabilty [2]: Unstable
FC(F)(F)n1c(-c2cscn2)nc2ccccc21 | – | 3 | 580 | 39 | 3.3 | half-life (physchem [3]): > 1730 h; half-life (physchem [4]): > 1730 h; pKa (physchem [5]): < 2; half-life (physchem [10]): > 1730 h
CCCc1nn(C)c2c(=O)[nH]c(-c3cc(S(=O)(=O)N4CCN(C(F)(F)F)CC4)ccc3CC)nc12 | – | > 4 | – | – | > 5.3 | half-life (physchem [3]): < 31.2 h; half-life (physchem [4]): < 12 h; half-life (physchem [10]): < 19.2 h
FC(F)(F)n1cnc2ccccc21 | Stable | – | – | – | – | Stabilty [11]: Stable; Stabilty [12]: Stable
CN(c1ccccc1)C(F)(F)F | Stable | – | – | – | – | Stabilty [2]: Unstable
COc1ccc(CC(=O)Nc2cnn(C)c2)cc1OC | – | 0.9 | 420 | < 3 | 0.1 | –
CN(C)[C@H]1CC[C@H](Nc2nc(Nc3cnn(C(F)(F)F)c3)nn3cccc23)CC1 | – | 2.2 | 120 | < 3 | 2.2 | half-life (physchem [3]): > 1730 h; half-life (physchem [4]): 1700 h; half-life (physchem [10]): > 1730 h
Cc1ccc(-c2cn(C)cn2)cc1NC(=O)c1ccc(OCc2ccccn2)cc1 | – | 2.7 | 720 | 4.8 | 2.2 | pKa (physchem [13]): 3.9; pKa (physchem [5]): 5.8
Cc1cc(NS(=O)(=O)c2ccc(N(C)C)cc2)no1 | – | 0.6 | – | – | 1.3 | –
CCCc1nn(C)c2c(=O)[nH]c(-c3cc(S(=O)(=O)N4CCN(C)CC4)ccc3CC)nc12 | – | 2.7 | – | – | 3.3 | –
CC(=O)c1ccc(N2CCN(C(=O)c3cnn(C)c3)CC2)cc1 | – | 1.1 | 420 | < 3 | 0.6 | –
CCCCN(C(=O)F)c1ccc(C(=O)OCCN(C)C)cc1 | – | – | – | – | – | half-life [14]: 1.1 h; half-life [15]: 3.95 h
COc1ccc(CC(=O)Nc2cnn(C(C)C)c2)cc1OC | – | 1.6 | 440 | < 3.3 | 0.9 | –
CC(=O)c1ccc(N2CCN(C(=O)c3cnn(C(C)C)c3)CC2)cc1 | – | 1.8 | 400 | < 4.2 | 1.5 | –
COc1ccc(CC(=O)Nc2cnn(C(C)(C)C)c2)cc1OC | – | 2 | 450 | < 4.1 | 1.6 | –
CN(c1cccc(F)c1)C(F)(F)F | Stable | – | – | – | – | –
Cn1c(-c2cscn2)nc2ccccc21 | – | 2.3 | 720 | 172 | 1.5 | pKa (physchem [5]): 4.9
CN(c1ccc(C(F)(F)F)cc1)C(F)(F)F | Stable | – | – | – | – | degraded at 24 h, 10000 µM [16]: 90%

Structure (SMILES) | Stabilty [1] | logD (physchem [6]) | Papp A→B (in vitro [7]) [nm/s] | microsomal CLint (in vitro [8]) [µL/min/mg] | chromatographic logD (physchem [9]) | further results
Cn1cc(Nc2nc(N[C@H]3CC[C@H](N(C)C)CC3)c3cccn3n2)cn1 | – | 0.6 | 24 | < 3 | < 0 | –
CC(=O)c1ccc(N2CCN(C(=O)c3cnn(C(F)(F)F)c3)CC2)cc1 | – | 1.9 | 710 | < 3 | 2.3 | half-life (physchem [3]): 984 h; half-life (physchem [4]): 408 h; half-life (physchem [10]): > 1730 h
CN(C)[C@H]1CC[C@H](Nc2nc(Nc3cnn(C(C)(C)C)c3)nn3cccc23)CC1 | – | 1.7 | 110 | < 3 | 1.5 | –
CN(c1ccc(F)cc1)C(F)(F)F | Stable | – | – | – | – | –
FC(F)(F)N1CCCc2ccccc21 | Stable | – | – | – | – | Stabilty [2]: Unstable
CCN(c1ccccc1)C(F)(F)F | Stable | – | – | – | – | Stabilty [2]: Unstable
FC(F)(F)n1cccn1 | Stable | – | – | – | – | Stabilty [11]: Stable; Stabilty [12]: Stable
CCOC(=O)N(Cc1ccccc1)C(F)(F)F | Stable | – | – | – | – | Stabilty [2]: Unstable
COc1ccc(CC(=O)Nc2cnn(C(F)(F)F)c2)cc1OC | – | 2.4 | 560 | 53 | 2.2 | half-life (physchem [3]): 288 h; half-life (physchem [4]): > 1730 h; half-life (physchem [10]): > 1730 h
CC(C)n1cc(Nc2nc(N[C@H]3CC[C@H](N(C)C)CC3)c3cccn3n2)cn1 | – | 1.4 | 84 | < 3 | 1.1 | –
Cc1cc(NS(=O)(=O)c2ccc(N(C)C(F)(F)F)cc2)no1 | – | 1.6 | – | – | 1.5 | half-life (physchem [3]): 4.8 h; half-life (physchem [4]): 7.2 h; half-life (physchem [10]): 9.6 h
CN(c1ccc(C#N)cc1)C(F)(F)F | Stable | – | – | – | – | degraded at 24 h, 10000 µM [16]: 24%
CCCCN(c1ccc(C(=O)OCCN(C)C)cc1)C(F)(F)F | – | > 4 | – | – | 4.9 | half-life (physchem [3]): < 14.4 h; half-life (physchem [4]): < 14.4 h; half-life (physchem [10]): < 14.4 h
CCCCN(C)c1ccc(C(=O)OCCN(C)C)cc1 | – | 2.8 | – | – | 3.3 | –
Cc1ccc(N(C)C(F)(F)F)cc1 | Stable | – | – | – | – | Stabilty [2]: Unstable
CC(=O)c1ccc(N2CCN(C(=O)c3cnn(C(C)(C)C)c3)CC2)cc1 | – | 2.2 | 660 | < 4.5 | 2.2 | –
COc1ccc(N(C)C(F)(F)F)cc1 | Stable | – | – | – | – | Stabilty [2]: Unstable
FC(F)(F)N1CCc2ccccc21 | Stable | – | – | – | – | Stabilty [2]: Unstable
